Assay results reported in PubChem BioAssay (NCI).
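Where inhibition never reached the appropriate level, the endpoint shown equals the highest concentration tested. Otherwise, values were interpolated linearly from a five-concentration, 48-hour dose response in 96-well plates. GI50 = concentration required for 50% inhibition of growth. The concentration for full growth arrest is given as TGI.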

tested on: SF-539 CNS; assay: DTP human tumour cell line panel, 48 h

| Compound | GI50 | TGI |
| --- | --- | --- |
| COc1cc2cc(Oc3ccc(NC(=O)c4cc(C(F)(F)F)cc(C(F)(F)F)c4)cc3)c(C)nc2cc1OC | > 50 µM | > 50 µM |
| O=C(Nc1cc(Cl)ccc1O)c1ccc(Nc2ccnc(C(F)(F)F)c2)cc1 | 3.29 µM | > 100 µM |
| ClCCN(CCCl)c1ccc(CNc2ccccc2)cc1 | 3.21 µM | 24.2 µM |

tested on: RPMI-8226 leukemia; assay: DTP human tumour cell line panel, 48 h

| Compound | GI50 | TGI |
| --- | --- | --- |
| Cc1cn(-c2cc(C(=O)Nc3cccc(-n4ccc5c(NC(=O)c6ccccc6)nccc54)c3)cc(C(F)(F)F)c2)cn1 | 0.426 µM | 4.02 µM |
| COc1cc2cc(Oc3ccc(NC(=O)c4cc(C(F)(F)F)cc(C(F)(F)F)c4)cc3)c(C)nc2cc1OC | 1.57 µM | > 50 µM |
| O=C(Nc1cc(Cl)ccc1O)c1ccc(Nc2ccnc(C(F)(F)F)c2)cc1 | 1.25 µM | 3.83 µM |
| ClCCN(CCCl)c1ccc(CNc2ccccc2)cc1 | 12.9 µM | 69.4 µM |

tested on: OVCAR-3 ovarian; assay: DTP human tumour cell line panel, 48 h

| Compound | GI50 | TGI |
| --- | --- | --- |
| Cc1cn(-c2cc(C(=O)Nc3cccc(-n4ccc5c(NC(=O)c6ccccc6)nccc54)c3)cc(C(F)(F)F)c2)cn1 | 0.313 µM | 1.03 µM |
| COc1cc2cc(Oc3ccc(NC(=O)c4cc(C(F)(F)F)cc(C(F)(F)F)c4)cc3)c(C)nc2cc1OC | 1.96 µM | > 50 µM |
| O=C(Nc1cc(Cl)ccc1O)c1ccc(Nc2ccnc(C(F)(F)F)c2)cc1 | 2.16 µM | 5.58 µM |
| ClCCN(CCCl)c1ccc(CNc2ccccc2)cc1 | 15.2 µM | > 100 µM |

tested on: UACC-62 melanoma; assay: DTP human tumour cell line panel, 48 h

| Compound | GI50 | TGI |
| --- | --- | --- |
| Cc1cn(-c2cc(C(=O)Nc3cccc(-n4ccc5c(NC(=O)c6ccccc6)nccc54)c3)cc(C(F)(F)F)c2)cn1 | 0.366 µM | 12.7 µM |
| O=C(Nc1cc(Cl)ccc1O)c1ccc(Nc2ccnc(C(F)(F)F)c2)cc1 | 2.3 µM | 15.5 µM |

tested on: RXF 393 renal; assay: DTP human tumour cell line panel, 48 h

| Compound | GI50 | TGI |
| --- | --- | --- |
| Cc1cn(-c2cc(C(=O)Nc3cccc(-n4ccc5c(NC(=O)c6ccccc6)nccc54)c3)cc(C(F)(F)F)c2)cn1 | 0.202 µM | 0.535 µM |
| COc1cc2cc(Oc3ccc(NC(=O)c4cc(C(F)(F)F)cc(C(F)(F)F)c4)cc3)c(C)nc2cc1OC | 2.93 µM | > 50 µM |
| O=C(Nc1cc(Cl)ccc1O)c1ccc(Nc2ccnc(C(F)(F)F)c2)cc1 | 5.71 µM | > 100 µM |

tested on: UO-31 renal; assay: DTP human tumour cell line panel, 48 h

| Compound | GI50 | TGI |
| --- | --- | --- |
| Cc1cn(-c2cc(C(=O)Nc3cccc(-n4ccc5c(NC(=O)c6ccccc6)nccc54)c3)cc(C(F)(F)F)c2)cn1 | 1.1 µM | 14.9 µM |
| COc1cc2cc(Oc3ccc(NC(=O)c4cc(C(F)(F)F)cc(C(F)(F)F)c4)cc3)c(C)nc2cc1OC | 2.6 µM | > 50 µM |
| O=C(Nc1cc(Cl)ccc1O)c1ccc(Nc2ccnc(C(F)(F)F)c2)cc1 | 1.93 µM | 6.13 µM |
| ClCCN(CCCl)c1ccc(CNc2ccccc2)cc1 | 4.86 µM | 42.3 µM |

tested on: HL-60(TB) leukemia; assay: DTP human tumour cell line panel, 48 h

| Compound | GI50 | TGI |
| --- | --- | --- |
| Cc1cn(-c2cc(C(=O)Nc3cccc(-n4ccc5c(NC(=O)c6ccccc6)nccc54)c3)cc(C(F)(F)F)c2)cn1 | 0.451 µM | 2.5 µM |
| COc1cc2cc(Oc3ccc(NC(=O)c4cc(C(F)(F)F)cc(C(F)(F)F)c4)cc3)c(C)nc2cc1OC | 3.51 µM | > 50 µM |
| O=C(Nc1cc(Cl)ccc1O)c1ccc(Nc2ccnc(C(F)(F)F)c2)cc1 | 1.25 µM | 4.42 µM |
| ClCCN(CCCl)c1ccc(CNc2ccccc2)cc1 | 2.44 µM | 54 µM |

tested on: SNB-19 CNS; assay: DTP human tumour cell line panel, 48 h

| Compound | GI50 | TGI |
| --- | --- | --- |
| Cc1cn(-c2cc(C(=O)Nc3cccc(-n4ccc5c(NC(=O)c6ccccc6)nccc54)c3)cc(C(F)(F)F)c2)cn1 | 0.579 µM | 25.5 µM |
| O=C(Nc1cc(Cl)ccc1O)c1ccc(Nc2ccnc(C(F)(F)F)c2)cc1 | 2.15 µM | 7.78 µM |
| ClCCN(CCCl)c1ccc(CNc2ccccc2)cc1 | 19 µM | > 100 µM |

tested on: NCI/ADR-RES ovarian; assay: DTP human tumour cell line panel, 48 h

| Compound | GI50 | TGI |
| --- | --- | --- |
| Cc1cn(-c2cc(C(=O)Nc3cccc(-n4ccc5c(NC(=O)c6ccccc6)nccc54)c3)cc(C(F)(F)F)c2)cn1 | 1.13 µM | > 33.4 µM |
| COc1cc2cc(Oc3ccc(NC(=O)c4cc(C(F)(F)F)cc(C(F)(F)F)c4)cc3)c(C)nc2cc1OC | 2.61 µM | > 50 µM |
| O=C(Nc1cc(Cl)ccc1O)c1ccc(Nc2ccnc(C(F)(F)F)c2)cc1 | 2.93 µM | > 100 µM |
| ClCCN(CCCl)c1ccc(CNc2ccccc2)cc1 | 9.78 µM | > 100 µM |

tested on: U251 CNS; assay: DTP human tumour cell line panel, 48 h

| Compound | GI50 | TGI |
| --- | --- | --- |
| Cc1cn(-c2cc(C(=O)Nc3cccc(-n4ccc5c(NC(=O)c6ccccc6)nccc54)c3)cc(C(F)(F)F)c2)cn1 | 0.29 µM | 1.48 µM |
| COc1cc2cc(Oc3ccc(NC(=O)c4cc(C(F)(F)F)cc(C(F)(F)F)c4)cc3)c(C)nc2cc1OC | 2.64 µM | > 50 µM |
| O=C(Nc1cc(Cl)ccc1O)c1ccc(Nc2ccnc(C(F)(F)F)c2)cc1 | 3.47 µM | > 100 µM |
| ClCCN(CCCl)c1ccc(CNc2ccccc2)cc1 | 4.43 µM | > 100 µM |

tested on: NCI-H23 lung; assay: DTP human tumour cell line panel, 48 h

| Compound | GI50 | TGI |
| --- | --- | --- |
| Cc1cn(-c2cc(C(=O)Nc3cccc(-n4ccc5c(NC(=O)c6ccccc6)nccc54)c3)cc(C(F)(F)F)c2)cn1 | 1.06 µM | 19.9 µM |
| COc1cc2cc(Oc3ccc(NC(=O)c4cc(C(F)(F)F)cc(C(F)(F)F)c4)cc3)c(C)nc2cc1OC | 2.71 µM | > 50 µM |
| O=C(Nc1cc(Cl)ccc1O)c1ccc(Nc2ccnc(C(F)(F)F)c2)cc1 | 2.46 µM | 7.81 µM |
| ClCCN(CCCl)c1ccc(CNc2ccccc2)cc1 | 9.59 µM | > 100 µM |

tested on: A498 renal; assay: DTP human tumour cell line panel, 48 h

| Compound | GI50 | TGI |
| --- | --- | --- |
| Cc1cn(-c2cc(C(=O)Nc3cccc(-n4ccc5c(NC(=O)c6ccccc6)nccc54)c3)cc(C(F)(F)F)c2)cn1 | 0.223 µM | 1.71 µM |
| COc1cc2cc(Oc3ccc(NC(=O)c4cc(C(F)(F)F)cc(C(F)(F)F)c4)cc3)c(C)nc2cc1OC | 1.13 µM | > 50 µM |
| O=C(Nc1cc(Cl)ccc1O)c1ccc(Nc2ccnc(C(F)(F)F)c2)cc1 | 2.39 µM | 7.17 µM |
| ClCCN(CCCl)c1ccc(CNc2ccccc2)cc1 | 6.32 µM | 24.3 µM |

tested on: HS 578T breast; assay: DTP human tumour cell line panel, 48 h

| Compound | GI50 | TGI |
| --- | --- | --- |
| Cc1cn(-c2cc(C(=O)Nc3cccc(-n4ccc5c(NC(=O)c6ccccc6)nccc54)c3)cc(C(F)(F)F)c2)cn1 | 0.252 µM | 1.73 µM |
| COc1cc2cc(Oc3ccc(NC(=O)c4cc(C(F)(F)F)cc(C(F)(F)F)c4)cc3)c(C)nc2cc1OC | 9.13 µM | > 50 µM |
| O=C(Nc1cc(Cl)ccc1O)c1ccc(Nc2ccnc(C(F)(F)F)c2)cc1 | 3.75 µM | > 100 µM |
| ClCCN(CCCl)c1ccc(CNc2ccccc2)cc1 | 12.4 µM | 83.2 µM |

tested on: SK-MEL-2 melanoma; assay: DTP human tumour cell line panel, 48 h

| Compound | GI50 | TGI |
| --- | --- | --- |
| Cc1cn(-c2cc(C(=O)Nc3cccc(-n4ccc5c(NC(=O)c6ccccc6)nccc54)c3)cc(C(F)(F)F)c2)cn1 | 0.342 µM | 11.9 µM |
| COc1cc2cc(Oc3ccc(NC(=O)c4cc(C(F)(F)F)cc(C(F)(F)F)c4)cc3)c(C)nc2cc1OC | 15.8 µM | > 50 µM |
| ClCCN(CCCl)c1ccc(CNc2ccccc2)cc1 | 20.9 µM | 51 µM |

tested on: LOX IMVI melanoma; assay: DTP human tumour cell line panel, 48 h

| Compound | GI50 | TGI |
| --- | --- | --- |
| Cc1cn(-c2cc(C(=O)Nc3cccc(-n4ccc5c(NC(=O)c6ccccc6)nccc54)c3)cc(C(F)(F)F)c2)cn1 | 0.379 µM | 2.07 µM |
| COc1cc2cc(Oc3ccc(NC(=O)c4cc(C(F)(F)F)cc(C(F)(F)F)c4)cc3)c(C)nc2cc1OC | 47 µM | > 50 µM |
| O=C(Nc1cc(Cl)ccc1O)c1ccc(Nc2ccnc(C(F)(F)F)c2)cc1 | 3.09 µM | 76.9 µM |
| ClCCN(CCCl)c1ccc(CNc2ccccc2)cc1 | 4.52 µM | 26 µM |
